In patent US20230144898A1, “INHIBITOR OF ASPARTIC ACID SYNTHESIS IN TUMOR CELLS, INHIBITOR OF SPHEROID FORMATION OF TUMOR CELLS, INHIBITOR OF TUMOR CELL METASTASIS, ACTIVITY ENHANCER OF GLYCOLYTIC INHIBITOR, AND PHARMACEUTICAL COMPOSITION FOR SUPPRESSING AND/OR PREVENTING TUMOR METASTASIS” (CCI HOLDINGS INC., priority 2020, published 2023):
In brackets after ≈: the same amount, converted by molar mass. Where two headings read alike, the source gives them in different places.

What was measured:
[1] = test system: CMeCl cells (canine malignant melanoma cells); experiment: Proliferation inhibition, CMeC1 cells, trypan blue viable cell count (Test Example 1); type: cell-based; conditions: Cell line: CMeC1, incubated for 72 hours; for IC50: read-out: IC50
Description: Four compounds of petasin, S-petasin, neopetasin and neo-S-petasin were evaluated for the inhibitory effect on proliferation of mouse or canine malignant melanoma cells by the following method.
B16F10 cells (mouse malignant melanoma cells) were obtained from JCRB Cell Bank (National Institutes of Biomedical Innovation, Health and Nutrition). In addition, CMeCl cells (canine malignant melanoma cells) were obtained from Veterinary Surgery Laboratory, Graduate School of Agricultural and Life Sciences, the University of Tokyo. Furthermore, A2058 cells (human malignant melanoma cells) were obtained from JCRB Cell Bank (National Institutes of Biomedical Innovation, Health and Nutrition). B16F10 cells were cultured in a 37° C. incubator (air/CO2 = 95/5 (v/v)) using Dulbecco’s modified Eagle’s medium (DMEM), CMeCl cells in RPMI (Roswell Park Memorial Institute) medium (RPMI1640), and A2058 cells in E-MEM medium.
First, CMeCl cells (canine malignant melanoma cells) were seeded in a six-well plate so as to be 0.5×10^5 cells/mL, and after 24 hours therefrom, each of the above four kinds of compounds (final concentration: 0.01 to 100 µg/mL) was suspended in the medium at a ratio of 0.1% and incubated for 72 hours. 72 hours after the start of culture, the number of viable cells was measured by trypan blue staining. At this time, viable cells (cell viability%) were calculated as the relative number of cells when the number of viable cells in a negative control section (DMSO treatment) was taken as 100%. Then, IC50 was calculated using a GraphPad Prism software system (GraphPad Software Inc.).

colon cancer cell lines = conditions: cited from earlier work
[2] = test system: B16F10 cells (mouse malignant melanoma cells); conditions: cited from earlier work
B16F10 cells = experiment: Influence on anticancer action of 2-DG, cell viability (Test Example 3); type: cell-based, mouse; conditions: 2-DG 3 mM to 3 nM, negative control section (DMSO), 36 hours
Description: Specifically, to start with, B16F10 cells were seeded in a six-well plate in an amount of 0.5×10^5 cells/mL. Next, after 24 hours starting from seeding, 2-DG (concentration changed from 3 mM to 3 nM) was added and simultaneously treated with neopetasin at a concentration of 0.3 µM or 3 µM. Then, after 36 hours starting from this treatment, the cell viability was measured through the same method as in Test Example 1. Moreover, as a negative control section, DMSO was administered to perform the same experiment.

[3] = test system: mitochondria in B16F10 cells; experiment: MitoTracker Orange staining of mitochondria (Test Example 8); type: cell-based, mouse; conditions: neopetasin 3 µM, metformin 5000 µM; 48 hours
Description: In order to determine the action mechanism of neopetasin on inhibiting the aspartic acid synthesis in tumor cells, the influence of neopetasin on mitochondria in B16F10 cells was evaluated. Specifically, B16F10 cells treated with neopetasin (3 µM) for 48 hours through the same method as in Test Example 1 were stained using MitoTracker Orange (Thermo Fisher Scientific, MA, USA), which labels mitochondria depending on membrane potential. In addition, as a positive control section, in place of neopetasin, metformin known as a mitochondrial respiratory chain Complex I inhibitor (mitochondrial toxin) was used at a concentration of 5000 µM to perform the same experiment. Subsequently, the cells stained as described above were photographed with a fluorescence microscope (FIG. 9A). In addition, the relationship between fluorescence intensity of the cells and the distribution of the number of cells was measured using an image cytometer (Tali, Thermo Fisher Scientific, MA, USA) (FIG. 9B).

[4] = test system: mitochondria in B16F10 cells; experiment: Electron microscope observation of treated cells (Test Example 8); type: cell-based, mouse; conditions: neopetasin 3 µM, metformin 5000 µM
Description: Following the above results, the cells respectively treated with neopetasin (3 µM) and metformin (5000 µM) in the above were observed using an electron microscope. Furthermore, DMSO was administered to the negative control section, and the same experiment was performed.

In the case of `C=C(C)[C@@H]1C[C@@]2(C)C(=CC1=O)CC[C@@H](OC(=O)/C(C)=C\C)[C@@H]2C` [Petasin, petasin], the IC50 ([1]; Canis lupus familiaris, 72 h) is given as 2810 nM, the “migration and invasion of colon cancer cell lines” value (colon cancer cell lines) is given as “suppressed migration and invasion” and the “proliferation of colon cancer cell lines” value (colon cancer cell lines) is given as “inhibited proliferation”.
In the case of `N.N.[Cl][Pt][Cl]` [cisplatin], the “IC50 for B16F10 cells (classical anticancer agent)” value [2] is listed as 5 µg/mL.
For `O=CC[C@@H](O)[C@H](O)[C@H](O)CO` [2-DG, 2-deoxy-D-glucose, reference compound], the cell viability (B16F10 cells) was “reduced in a concentration-dependent manner”.
For neo-S-petasin [reference compound], the “IC50 (µg/mL)” value [1] was 0.537 µg/mL and the IC50 [1] was 1600 nM.
For `C=C(C)[C@@H]1C[C@@]2(C)C(=CC1=O)CC[C@@H](OC(=O)/C=C\SC)[C@@H]2C` [S-petasin, reference compound], the “IC50 (µg/mL)” value [1] was 0.755 µg/mL (≈ 2.26 µM) and the IC50 [1] was 2260 nM.
For `CN(C)C(=N)N=C(N)N` [metformin, reference compound], the “MitoTracker Orange fluorescence intensity” value [3] was “enhanced fluorescence intensity” and the “influence on mitochondria (electron microscope)” value [4] was “the influence on mitochondria was mild”.
